Laboratory results from patent US20250034216A1, “STEREOSELECTIVE COVALENT LIGANDS FOR ONCOGENIC AND IMMUNOLOGICAL PROTEINS” (The Scripps Research Institute, priority 2021, published 2025).

What was measured:
Test in all cases: IA-DTB cysteine engagement
Format in all cases: binding
[1] = biological target: T1, PRXL2A_C85 (Homo sapiens, UniProt Q9BRX8); details: 22Rv1 cells, relative to DMSO; for % engagement PRXL2A_85: 5 μM probe, 1 h (FIG. 5B); for % engagement PRXL2A_C85: 20 μM probe, 1 h
T1 construct: endogenous in cells; host or cells: 22Rv1
T1 sequence (Q9BRX8 1-229): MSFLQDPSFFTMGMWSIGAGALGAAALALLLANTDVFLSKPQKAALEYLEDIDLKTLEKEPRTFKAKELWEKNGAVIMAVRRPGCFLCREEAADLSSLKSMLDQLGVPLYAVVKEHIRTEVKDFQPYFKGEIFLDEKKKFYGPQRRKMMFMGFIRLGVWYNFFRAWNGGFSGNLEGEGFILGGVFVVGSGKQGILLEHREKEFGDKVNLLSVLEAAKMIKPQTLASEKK
Procedure, shortened: (§1)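 In-situ probe treatment of cells; lysate 2 mg/mL, IA-DTB 1 h RT; MeOH/CHCl3 precipitation, DTT/iodoacetamide, trypsin; streptavidin enrichment; TMT labeling, high-pH fractionation. Ratio = TMT reporter intensity / mean DMSO channels, median-normalized.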

[2] = biological target: T2, NT5DC2_C507 (Homo sapiens, UniProt Q9H857); details: 22Rv1 cells, 20 μM probe, 1 h, relative to DMSO
T2 construct: endogenous in cells; host or cells: 22Rv1
T2 sequence (Q9H857 1-520): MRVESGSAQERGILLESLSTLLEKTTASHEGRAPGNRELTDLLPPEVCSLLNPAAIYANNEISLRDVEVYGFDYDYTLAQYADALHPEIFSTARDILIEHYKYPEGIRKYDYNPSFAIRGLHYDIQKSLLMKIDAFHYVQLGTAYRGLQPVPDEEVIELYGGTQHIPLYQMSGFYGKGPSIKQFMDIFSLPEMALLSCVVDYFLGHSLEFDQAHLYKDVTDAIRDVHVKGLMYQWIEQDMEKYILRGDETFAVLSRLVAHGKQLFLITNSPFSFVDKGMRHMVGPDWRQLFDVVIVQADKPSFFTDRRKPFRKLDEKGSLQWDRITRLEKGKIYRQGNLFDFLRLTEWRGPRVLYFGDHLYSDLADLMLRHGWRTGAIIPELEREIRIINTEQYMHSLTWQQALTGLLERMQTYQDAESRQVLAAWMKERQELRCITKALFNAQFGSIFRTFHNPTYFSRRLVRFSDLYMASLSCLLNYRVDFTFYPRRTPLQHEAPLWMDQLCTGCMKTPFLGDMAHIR
Procedure, shortened: as §1

[3] = biological target: T3, HSDL1_C265 (Homo sapiens, UniProt Q3SXM5); details: 22Rv1 cells, 20 μM probe, 1 h, relative to DMSO
T3 construct: endogenous in cells; host or cells: 22Rv1
T3 sequence (Q3SXM5 1-330): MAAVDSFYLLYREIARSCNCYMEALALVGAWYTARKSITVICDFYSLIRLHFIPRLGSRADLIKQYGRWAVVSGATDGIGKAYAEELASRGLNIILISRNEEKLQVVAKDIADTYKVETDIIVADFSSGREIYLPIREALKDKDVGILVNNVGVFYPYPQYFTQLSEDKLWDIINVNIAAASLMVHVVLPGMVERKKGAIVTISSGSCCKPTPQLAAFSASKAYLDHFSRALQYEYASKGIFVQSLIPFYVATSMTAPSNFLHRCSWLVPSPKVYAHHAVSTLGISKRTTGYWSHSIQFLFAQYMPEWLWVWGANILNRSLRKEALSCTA
Procedure, shortened: as §1

[4] = biological target: T4, DCTN4_C258 (Homo sapiens, UniProt Q9UJW0); details: 22Rv1 cells, 20 μM probe, 1 h, relative to DMSO
T4 construct: endogenous in cells; host or cells: 22Rv1
Procedure, shortened: as §1

[5] = biological target: T5, NELFCD_C169 (Homo sapiens, UniProt Q8IXH7); details: 22Rv1 cells, 20 μM probe, 1 h, relative to DMSO
T5 construct: endogenous in cells; host or cells: 22Rv1
Procedure, shortened: as §1

T4 sequence (Q9UJW0 whole entry): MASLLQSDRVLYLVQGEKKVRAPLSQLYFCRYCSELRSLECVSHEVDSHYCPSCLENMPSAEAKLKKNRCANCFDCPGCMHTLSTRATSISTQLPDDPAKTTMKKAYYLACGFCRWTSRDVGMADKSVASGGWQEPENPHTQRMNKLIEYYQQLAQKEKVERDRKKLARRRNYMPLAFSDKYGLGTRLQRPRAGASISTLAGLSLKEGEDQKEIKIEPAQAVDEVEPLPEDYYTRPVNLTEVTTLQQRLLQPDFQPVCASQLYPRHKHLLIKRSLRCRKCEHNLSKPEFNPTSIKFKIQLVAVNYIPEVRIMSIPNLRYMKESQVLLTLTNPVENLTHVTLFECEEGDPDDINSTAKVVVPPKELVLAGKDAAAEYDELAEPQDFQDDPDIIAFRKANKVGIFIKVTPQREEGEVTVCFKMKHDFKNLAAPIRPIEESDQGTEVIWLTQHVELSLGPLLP
T5 sequence (Q8IXH7 whole entry): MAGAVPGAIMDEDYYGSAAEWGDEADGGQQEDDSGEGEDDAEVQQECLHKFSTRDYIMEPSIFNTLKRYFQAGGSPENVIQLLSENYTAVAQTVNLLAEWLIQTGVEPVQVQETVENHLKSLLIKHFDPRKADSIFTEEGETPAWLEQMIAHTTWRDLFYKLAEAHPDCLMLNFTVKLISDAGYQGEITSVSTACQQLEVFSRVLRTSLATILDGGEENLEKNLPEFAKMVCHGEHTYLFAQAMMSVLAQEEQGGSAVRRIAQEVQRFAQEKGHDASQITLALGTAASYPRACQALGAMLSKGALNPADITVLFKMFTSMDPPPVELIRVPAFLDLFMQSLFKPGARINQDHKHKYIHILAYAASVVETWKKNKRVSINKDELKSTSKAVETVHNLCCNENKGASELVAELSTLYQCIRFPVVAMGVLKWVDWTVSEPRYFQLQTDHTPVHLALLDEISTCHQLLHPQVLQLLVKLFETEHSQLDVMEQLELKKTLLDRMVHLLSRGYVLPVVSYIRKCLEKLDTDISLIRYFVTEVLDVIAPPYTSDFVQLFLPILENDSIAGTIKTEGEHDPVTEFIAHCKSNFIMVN

`CC#CC(=O)N1C[C@H](c2ccc(Br)cc2)[C@@H]1C(=O)Nc1cccc2cccnc12` [MY-45B, (2R,3S)-3-(4-bromophenyl)-1-(but-2-ynoyl)-N-(quinolin-8-yl)azetidine-2-carboxamide] was tested, and the “% engagement PRXL2A_85” value [1] was 86.23%.

With `C=CC(=O)N1C[C@H](c2ccc(Br)cc2)[C@H]1C(=O)Nc1cccc2cccnc12` [MY-3A, (2S,3S)-1-acryloyl-3-(4-bromophenyl)-N-(quinolin-8-yl)azetidine-2-carboxamide] the “% engagement NT5DC2_C507” value [2] was 50.5%, the “% engagement HSDL1_C265” value [3] was 64.25% and the “% engagement PRXL2A_C85” value [1] was 97.5%. The “% engagement DCTN4_C258” value [4] was 15.5% and the “% engagement NELFCD_C169” value [5] was 40.75%.

`C=CC(=O)N1C[C@H](c2ccc(Br)cc2)[C@@H]1C(=O)Nc1cccc2cccnc12` [MY-1B, (2R,3S)-1-acryloyl-3-(4-bromophenyl)-N-(quinolin-8-yl)azetidine-2-carboxamide] was tested, and the “% engagement NT5DC2_C507” value [2] was 67.25%, the “% engagement HSDL1_C265” value [3] was 54% and the “% engagement PRXL2A_85” value [1] was 91.48%. For the same compound, the “% engagement PRXL2A_C85” value [1] was 98.75%, the “% engagement DCTN4_C258” value [4] was 68% and the “% engagement NELFCD_C169” value [5] was 41.75%.

In the case of `C=CC(=O)N1C[C@H](c2ccc(Br)cc2)[C@H]1C(=O)Nc1cccc2cccnc12` [MY-3B, (2S,3S)-1-acryloyl-3-(4-bromophenyl)-N-(quinolin-8-yl)azetidine-2-carboxamide], the “% engagement NT5DC2_C507” value [2] is reported as 57.5%, the “% engagement HSDL1_C265” value [3] is reported as 82% and the “% engagement PRXL2A_C85” value [1] is reported as 98.5%. For the same compound, the “% engagement DCTN4_C258” value [4] was 31.5% and the “% engagement NELFCD_C169” value [5] was 69.5%.

With `C=CC(=O)N1C[C@@H](c2ccc(Br)cc2)[C@H]1C(=O)Nc1cccc2cccnc12` [MY-1A, (2S,3R)-1-acryloyl-3-(4-bromophenyl)-N-(quinolin-8-yl)azetidine-2-carboxamide] the “% engagement NT5DC2_C507” value [2] was 83.75%, the “% engagement HSDL1_C265” value [3] was 52% and the “% engagement PRXL2A_C85” value [1] was 92.5%. For the same compound, the “% engagement DCTN4_C258” value [4] was 27.5% and the “% engagement NELFCD_C169” value [5] was 51%.
